Source: ChEMBL document CHEMBL3763141, “Anti-Candida Cassane-Type Diterpenoids from the Root Bark of Swartzia simplex” (2015)
≈ marks a conversion by molar mass, not a printed value. Calls of active or inactive are those of the source. The rule behind the calls is not given here.

Tests used:
Candida albicans [1] = assay: Antibiofilm activity against Candida albicans CAF2-1 after 48 hrs by XTT assay; format: functional; conditions: CAF2-1, 48 h
Candida albicans [2] = assay: Antifungal activity against Candida albicans CAF2-1 after overnight incubation by MTT based bioautography method; format: functional
Candida albicans [3] = assay: Antifungal activity against Candida albicans CAF2-1 after 24 hrs by spectrophotometry based broth dilution assay; format: functional; conditions: CAF2-1, 24 h
Candida albicans [4] = assay: Antifungal activity against hypersusceptible Candida albicans DSY2621 mutant after overnight incubation by MTT based bioautography method; format: functional
Candida albicans [5] = assay: Induction of ultrastructural changes in Candida albicans CAF2-1 assessed as retraction of cytoplasm at 16 ug/ml after 18 hrs by uranyl acetate/lead citrate staining based transmission electron microscopy; format: functional, organism-based
Candida albicans [6] = assay: Induction of ultrastructural changes in Candida albicans CAF2-1 assessed as reduction in budding initiation at 16 ug/ml after 18 hrs by uranyl acetate/lead citrate staining based transmission electron microscopy; format: functional, organism-based
Candida albicans [7] = assay: Induction of ultrastructural changes in Candida albicans CAF2-1 assessed as cytoplasmic content dis-organization with disappearance of mitochondria at 16 ug/ml after 18 hrs by uranyl acetate/lead citrate staining based transmission electron microscopy; format: functional, organism-based
Candida albicans [8] = assay: Induction of ultrastructural changes in Candida albicans CAF2-1 assessed as cytoplasmic content dis-organization with disappearance of ribosomes at 16 ug/ml after 18 hrs by uranyl acetate/lead citrate staining based transmission electron microscopy; format: functional, organism-based
Candida albicans [9] = assay: Induction of ultrastructural changes in Candida albicans CAF2-1 assessed as disorganization and disruption of nuclear membrane at 16 ug/ml after 18 hrs by uranyl acetate/lead citrate staining based transmission electron microscopy; format: functional, organism-based
Candida albicans [10] = assay: Induction of ultrastructural changes in Candida albicans CAF2-1 assessed as cytoplasmic content dis-organization at 16 ug/ml after 18 hrs by uranyl acetate/lead citrate staining based transmission electron microscopy; format: functional, organism-based
Candida albicans [11] = assay: Induction of ultrastructural changes in Candida albicans CAF2-1 assessed as breakage zones of plasma membrane at 16 ug/ml after 18 hrs by uranyl acetate/lead citrate staining based transmission electron microscopy; format: functional, organism-based
Candida albicans [12] = assay: Induction of ultrastructural changes in Candida albicans CAF2-1 assessed as cytoplasmic content dis-organization with disappearance of golgi apparatus at 16 ug/ml after 18 hrs by uranyl acetate/lead citrate staining based transmission electron microscopy; format: functional, organism-based

SMILES	MIC (Candida albicans [1])	MIC (Candida albicans [2])	MIC (Candida albicans [3])	MIC (Candida albicans [4])	other results
COc1c(O)c2c(c3c1[C@H](O)COC3=O)CC[C@H]1C(C)(C)CCC[C@]21C	50 mg/L (≈ 139 µM)	2 µg	32 mg/L (≈ 88.8 µM)	5 µg	–
C[C@H]1C(CCO)=C(O)C(=O)[C@H]2[C@H]1CC[C@H]1C(C)(C)CCC[C@]21C	> 50 mg/L	–	> 32 mg/L	<20 µg	–
COc1ccc(-c2coc3cc(O)c(OC)cc3c2=O)cc1 [CASTANIN]	> 50 mg/L	>50 µg	> 32 mg/L	–	–
COc1c(O)c2c(c3c(=O)occc13)CC[C@H]1C(C)(C)CCC[C@]21C	> 50 mg/L	>50 µg	> 32 mg/L	–	–
COc1c(O)c2c(c3c(=O)occc13)CC[C@H]1C(C)(C)C(=O)CC[C@]21C	> 50 mg/L	>50 µg	> 32 mg/L	10 µg	–
COc1c(O)c2c(c3c1[C@@H](CO)OC3=O)CC[C@H]1C(C)(C)C(=O)CC[C@]21C	> 50 mg/L	>50 µg	> 32 mg/L	>50 µg	–
COc1c(O)c2c(c3c1[C@@H](CO)OC3=O)CC[C@H]1C(C)(C)CCC[C@]21C	> 50 mg/L	>50 µg	> 32 mg/L	20 µg	–
CC1(C)CCC[C@]2(C)c3c(O)c(O)c4c(c3CC[C@@H]12)C(=O)OCC4	50 mg/L (≈ 151 µM)	>50 µg	> 32 mg/L	8 µg	–
CC1(C)CCC[C@]2(C)c3c(O)c(O)c4c(c3C=C[C@@H]12)C(=O)O[C@@H]4CO	50 mg/L (≈ 145 µM)	>50 µg	> 32 mg/L	>50 µg	–
COc1c(O)c2c(c3c1CCOC3=O)CC[C@H]1C(C)(C)C(=O)CC[C@]21C	> 50 mg/L	>50 µg	> 32 mg/L	>50 µg	–
COc1c(O)c2c(c3c1[C@@H](CO)OC3=O)CC[C@H]1[C@@H]3C[C@@H]3CC[C@]21C	50 mg/L (≈ 145 µM)	–	> 32 mg/L	–	–
Clc1ccc(COC(Cn2ccnc2)c2ccc(Cl)cc2Cl)c(Cl)c1 (stereo not given) [MICONAZOLE]	–	0.005 µg	0.0156 mg/L (≈ 0.0375 µM)	0.0006 µg	–
CC1(C)CCC[C@]2(C)c3c(O)c(O)c4ccoc(=O)c4c3CC[C@@H]12	50 mg/L (≈ 152 µM)	–	> 32 mg/L	–	–
CC1(C)CCC[C@]2(C)c3c(O)c(O)c4c(c3CC[C@@H]12)C(=O)O[C@H]4CO	25 mg/L (≈ 72.2 µM)	>50 µg	32 mg/L (≈ 92.4 µM)	8 µg	Activity (Candida albicans [5]): Active; Activity (Candida albicans [6]): Active; Activity (Candida albicans [7]): Active; Activity (Candida albicans [8]): Active; Activity (Candida albicans [9]): Active; Activity (Candida albicans [10]): Active; Activity (Candida albicans [11]): Active; Activity (Candida albicans [12]): Active
COc1c(O)c2c(c3c1CCOC3=O)CC[C@H]1C(C)(C)CCC[C@]21C	> 50 mg/L	>50 µg	> 32 mg/L	>50 µg	–
